Assay results reported in a compilation of properties of binary mixtures (doi:10.1016/j.jtice.2024.105468).

Assay: xn = mol fraction of the nth substance listed
Details: 100 kPa

CCCC[n+]1ccn(C)c1.[Br-] + COCCO
viscosity (298.15 K, x1 = 0.1002): 10 mPa·s
viscosity (298.15 K, x1 = 0.1999): 34 mPa·s
viscosity (298.15 K, x1 = 0.3002): 74.5 mPa·s
viscosity (298.15 K, x1 = 0.4): 124 mPa·s
viscosity (298.15 K, x1 = 0.5): 179 mPa·s
viscosity (298.15 K, x1 = 0.5999): 247 mPa·s
viscosity (298.15 K, x1 = 0.8): 527 mPa·s
viscosity (298.15 K, x1 = 0.8975): 843 mPa·s
viscosity (298.15 K, x1 = 1): 1451 mPa·s
viscosity (303.15 K, x1 = 0.1002): 6.65 mPa·s
viscosity (303.15 K, x1 = 0.1999): 19.6 mPa·s
viscosity (303.15 K, x1 = 0.3002): 41.1 mPa·s
viscosity (303.15 K, x1 = 0.4): 68.9 mPa·s
viscosity (303.15 K, x1 = 0.5999): 139 mPa·s
viscosity (303.15 K, x1 = 0.7002): 192 mPa·s
viscosity (303.15 K, x1 = 0.8): 280 mPa·s
viscosity (303.15 K, x1 = 0.8975): 447 mPa·s
viscosity (303.15 K, x1 = 1): 837 mPa·s
viscosity (308.15 K, x1 = 0.1002): 5.03 mPa·s
viscosity (308.15 K, x1 = 0.1999): 13 mPa·s
viscosity (308.15 K, x1 = 0.3002): 26.9 mPa·s
viscosity (308.15 K, x1 = 0.5): 63.6 mPa·s
viscosity (308.15 K, x1 = 0.5999): 86.3 mPa·s
viscosity (308.15 K, x1 = 0.7002): 114 mPa·s
viscosity (308.15 K, x1 = 0.8): 162 mPa·s
viscosity (308.15 K, x1 = 0.8975): 256 mPa·s
viscosity (308.15 K, x1 = 1): 506 mPa·s
viscosity (313.15 K, x1 = 0.1002): 3.71 mPa·s
viscosity (313.15 K, x1 = 0.1999): 8.79 mPa·s
viscosity (313.15 K, x1 = 0.3002): 17.5 mPa·s
viscosity (313.15 K, x1 = 0.5999): 55.5 mPa·s
viscosity (313.15 K, x1 = 0.8): 106 mPa·s
viscosity (313.15 K, x1 = 0.8975): 167 mPa·s
viscosity (313.15 K, x1 = 1): 330 mPa·s

COCCO + CCCC[n+]1ccn(C)c1.[Br-]
viscosity (298.15 K, x2 = 0): 1.57 mPa·s
viscosity (303.15 K, x2 = 0): 1.5 mPa·s
viscosity (308.15 K, x2 = 0): 1.35 mPa·s
viscosity (313.15 K, x2 = 0): 1.23 mPa·s
